Tests used:
[1] = molecular target: T1, BRD4 Bromodomain 1 (BRD4 BD1) (Homo sapiens, UniProt O60885); assay: AlphaScreen binding assay, BRD4 BD1; conditions: His-tagged BRD4 BD1 50 nM, biotinylated H4 (1-21) K5/8/12/16 tetra-acetylated peptide 50 nM, compounds listed under IC50 range headings
T1 construct: 44-168 and BRD4 BD2
How it was run: (§1)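 An AlphaScreen competition format was used with His-BRD4 BD1 or BD2 and biotin-H4 K5/8/12/16-acetyl peptide, each at matched final levels of 50 nM (BD1) or 100 nM (BD2). Incubation in HEPES/NaCl buffer with 0.1% BSA and 0.01% Triton X-100 ran ≥1 h before IC50 determination.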

[2] = molecular target: T2, BRD4 Bromodomain 2 (BRD4 BD2) (Homo sapiens, UniProt O60885); assay: AlphaScreen binding assay, BRD4 BD2; conditions: His-tagged BRD4 BD2 100 nM, biotinylated H4 (1-21) K5/8/12/16 tetra-acetylated peptide 100 nM, compounds listed under IC50 range headings
T2 construct: 333-460 were cloned, expressed, and purified to homogeneity
How it was run: as §1

[3] = test system: acute myelocytic leukemia (AML) cell line MV4-11; assay: Oncology cell growth assay (3-day proliferation, CellTiter-Glo); format: cell-based; conditions: Homo sapiens, MV4-11, 72 h, MV4-11 cells, 3000 cells/well, compounds listed under IC50 range headings, read-out: MV411 IC50 (gIC50, inhibition of proliferation)
How it was run: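 72 h, 37° C, 5% CO2; MV4-11, 3000 cells/well, RPMI 1640 + 10% FBS. Compound final 10, 3.3, 1.1, 0.37, 0.12, 0.041, 0.013, 0.0045 μM. Readout CellTiter-Glo luminescence; gIC50 by 4-parameter logistic fit, normalised to DMSO and no-cell background.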

IC50 [1] [nM]	IC50 [2] [nM]	IC50 [3] [nM]	Structure (SMILES)
100 to 1000	< 50	< 500	COC(=O)N1c2ccc(-c3cnn(C4CCNCC4)c3)c(Oc3ccc(F)c(C#N)c3)c2CC[C@@H]1C [I-162, (S)-methyl 5-(3-cyano-4-fluorophenoxy)-2-methyl-6-(1-(piperidin-4-yl)-1H-pyrazol-4-yl)-3,4-dihydroquinoline-1(2H)-carboxylate]
100 to 1000	< 50	< 500	COC(=O)N1c2ccc(-c3cnn(C4CCNCC4)c3)c(Oc3ccc(F)c(Cl)c3)c2CC[C@@H]1C [I-163, (S)-methyl 5-(3-chloro-4-fluorophenoxy)-2-methyl-6-(1-(piperidin-4-yl)-1H-pyrazol-4-yl)-3,4-dihydroquinoline-1(2H)-carboxylate]
100 to 1000	< 50	< 500	C[C@H]1CCc2c(ccc(-c3cnn(C4CCNCC4)c3)c2Oc2ccc(F)cc2)N1C(=O)C1CC1 [I-164, (S)-cyclopropyl(5-(4-fluorophenoxy)-2-methyl-6-(1-(piperidin-4-yl)-1H-pyrazol-4-yl)-3,4-dihydroquinolin-1 (2H)-yl)methanone]
100 to 1000	< 50	< 500	C[C@H]1CCc2c(ccc(-c3cnn(C4CCNCC4)c3)c2Oc2ccc(Cl)cc2)N1C(=O)C1CC1 [I-166, (S)-(5-(4-chlorophenoxy)-2-methyl-6-(1-(piperidin-4-yl)-1H-pyrazol-4-yl)-3,4-dihydroquinolin-1(2H)-yl)(cyclopropyl)methanone]
100 to 1000	< 50	< 500	C[C@H]1CCc2c(ccc(-c3cnn(C4CCNCC4)c3)c2Oc2ccc(C#N)cc2)N1C(=O)C1CC1 [I-167]
100 to 1000	< 50	< 500	C[C@H]1CCc2c(ccc(-c3cnn(C4CCNCC4)c3)c2Oc2ccccc2)N1C(=O)C1CC1 [I-168, (S)-cyclopropyl(2-methyl-5-phenoxy-6-(1-(piperidin-4-yl)-1H-pyrazol-4-yl)-3,4-dihydroquinolin-1(2H)-yl)methanone]
100 to 1000	< 50	< 500	C[C@H]1CCc2c(ccc(-c3cnn(C4CCNCC4)c3)c2Oc2ccc(F)c(Cl)c2)N1C(=O)C1CC1 [I-169, (S)-(5-(3-chloro-4-fluorophenoxy)-2-methyl-6-(1-(piperidin-4-yl)-1H-pyrazol-4-yl)-3,4-dihydroquinolin-1(2H)-yl)(cyclopropyl)methanone]
100 to 1000	< 50	< 500	C[C@H]1CCc2c(ccc(-c3cnn(C4CNC4)c3)c2Oc2ccc(F)cc2)N1C(=O)C1CC1 [I-170, (S)-(6-(1-(azetidin-3-yl)-1H-pyrazol-4-yl)-5-(4-fluorophenoxy)-2-methyl-3,4-dihydroquinolin-1 (2H)-yl)(cyclopropyl)methanone]
100 to 1000	< 50	< 500	COC(=O)N1c2ccc(-c3cnn(C4CCNC4)c3)c(Oc3ccc(F)cc3)c2CC[C@@H]1C (stereo partly drawn) [I-185, (2S)-methyl 5-(4-fluorophenoxy)-2-methyl-6-(1-(pyrrolidin-3-yl)-1H-pyrazol-4-yl)-3,4-dihydroquinoline-1(2H)-carboxylate]
100 to 1000	< 50	< 500	COC(=O)N1c2ccc(-c3cnn(C4CCNCC4)c3)c(Oc3cccc(F)c3)c2CC[C@@H]1C [I-188, Methyl (S)-5-(3-fluorophenoxy)-2-methyl-6-(1-(piperidin-4-yl)-1H-pyrazol-4-yl)-3,4-dihydroquinoline-1(2H)-carboxylate]
100 to 1000	< 50	< 500	COC(=O)N1c2ccc(-c3cnn(C4CCNCC4)c3)c(Oc3cccc(Cl)c3)c2CC[C@@H]1C [I-189, Methyl (S)-5-(3-chlorophenoxy)-2-methyl-6-(1-(piperidin-4-yl)-1H-pyrazol-4-yl)-3,4-dihydroquinoline-1(2H)-carboxylate]
100 to 1000	50 to 500	< 500	CC(=O)N1c2ccc(-c3cnn(C4CCNCC4)c3)c(Oc3ccc(F)cc3)c2CC[C@@H]1C [I-190, (S)-1-(5-(4-fluorophenoxy)-2-methyl-6-(1-(piperidin-4-yl)-1H-pyrazol-4-yl)-3,4-dihydroquinolin-1(2H)-yl)ethanone]
100 to 1000	< 50	< 500	CC(=O)N1c2ccc(-c3cnn(C4CCNCC4)c3)c(Oc3ccc(Cl)cc3)c2CC[C@@H]1C [I-191, (S)-1-(5-(4-chlorophenoxy)-2-methyl-6-(1-(piperidin-4-yl)-1H-pyrazol-4-yl)-3,4-dihydroquinolin-1(2H)-yl)ethanone]
100 to 1000	< 50	< 500	COC(=O)N1c2ccc(-c3cnn(C4CCNCC4)c3)c(Oc3ccccc3)c2CC[C@@H]1C [I-200, (S)-methyl 2-methyl-5-phenoxy-6-(1-(piperidin-4-yl)-1H-pyrazol-4-yl)-3,4-dihydroquinoline-1(2H)-carboxylate]
100 to 1000	< 50	< 500	CC(=O)N1c2ccc(-c3cnn(C4CCNCC4)c3)c(Oc3ccccc3)c2CC[C@@H]1C [I-201, (S)-1-(2-methyl-5-phenoxy-6-(1-(piperidin-4-yl)-1H-pyrazol-4-yl)-3,4-dihydroquinolin-1(2H)-yl)ethanone]
100 to 1000	50 to 500	< 500	CC(=O)N1c2ccc(-c3cnn(C4CC4)c3)c(Oc3ccc(C(N)=O)cc3)c2CC[C@@H]1C [I-209, (S)-4-(1-acetyl-6-(1-cyclopropyl-1H-pyrazol-4-yl)-2-methyl-1,2,3,4-tetrahydroquinolin-5-yloxy)benzamide]
100 to 1000	< 50	< 500	CC(=O)N1c2ccc(-c3cnn(C4CC4)c3)c(Oc3ccccc3F)c2CC[C@@H]1C [I-210, (S)-1-(6-(1-cyclopropyl-1H-pyrazol-4-yl)-5-(2-fluorophenoxy)-2-methyl-3,4-dihydroquinolin-1(2H)-yl)ethanone]
100 to 1000	< 50	< 500	CC(=O)N1c2ccc(-c3cnn(C4CC4)c3)c(Oc3ccccc3Cl)c2CC[C@@H]1C [I-211, (S)-1-(5-(2-chlorophenoxy)-6-(1-cyclopropyl-1H-pyrazol-4-yl)-2-methyl-3,4-dihydroquinolin-1(2H)-yl)ethanone]
1000 to 10000	50 to 500	< 500	COC(=O)N1c2ccc(-c3cnn(C4CC4)c3)c(Oc3ccc(F)cc3)c2CC[C@@H]1C [I-212, (S)-methyl 6-(1-cyclopropyl-1H-pyrazol-4-yl)-5-(4-fluorophenoxy)-2-methyl-3,4-dihydroquinoline-1(2H)-carboxylate]
100 to 1000	50 to 500	< 500	COC(=O)N1c2ccc(-c3cnn(C4CC4)c3)c(Oc3ccc(C#N)cc3)c2CC[C@@H]1C [I-213, (S)-methyl 5-(4-cyanophenoxy)-6-(1-cyclopropyl-1H-pyrazol-4-yl)-2-methyl-3,4-dihydroquinoline-1(2H)-carboxylate]
1000 to 10000	< 50	< 500	COC(=O)N1c2ccc(-c3cnn(C4CC4)c3)c(Oc3ccc(Cl)cc3)c2CC[C@@H]1C [I-214, (S)-methyl 5-(4-chlorophenoxy)-6-(1-cyclopropyl-1H-pyrazol-4-yl)-2-methyl-3,4-dihydroquinoline-1(2H)-carboxylate]

Source: US10611750B2, “Tetrahydroquinoline compositions as bet bromodomain inhibitors” (FORMA Therapeutics, Inc., priority 2013, dated 2020)
